The values that follow come from US4975449A, “Topical treatment of glaucoma with 2-benzothiazolesulfonamide derivative” (University of Iowa Research Foundation, priority 1983, dated 1990).

The subject of assay [1] is rabbit eyes (intraocular pressure). The assay is described as follows: Rabbit Eye Tests (In-Vivo IOP Determinations), Water Loading Model. The arrangement: species or system New Zealand albino rabbits. The conditions noted are these: for drop in IOP (right eye) compared to no drug control: 6-ethoxy-N-methyl: at 90 and 120 minutes, 6-chloro: 15 through 90 minutes, ethoxzolamide: any time point. As to the method:
New Zealand albino rabbits either sex and weighing 1.9-2.4kg were used. Control IOP measurements were made by applanation tonometry (Alcon Applanation Pneumatonograph®) prior to water loading and drug administration. The rabbits were first anesthelized and then water loaded using 100 ml/kg (sterile water for injection). The water dose was given intraperitoneally over 15-20 minutes Four test formulations were administered topically to the right eye of each rabbit immediately following water loading. The vehicle was administered to the left eye of each rabbit. The test formulations contained 1% suspensions of ethoxzolamide, and the other indicated compounds, and a vehicle (coded E). The vehicle contained a pH 7.2 phosphate buffer and 0.05% polysorbate 80 (Tween-80®). IOP measurement were made in right and left eyes at 15, 30, […], 60, 90, 120 and 180 minutes after topical administration.

Assay [2] shares this test system. Briefly: Salted Rabbit Test (IOP in rabbits fed a sodium enriched diet). Format: in vivo, adult white rabbits. Conditions: for IOP change, (IOPDET - IOPCET) - (IOPDEO - IOPCEO) / Difference in IOP between both eyes just prior to dosing (IOPDEO - IOPCEO): individual rabbit; for IOP change, (IOPDET - IOPCET) - (IOPDEO - IOPCEO): 1% w/v suspension topical; for Difference in IOP between both eyes just prior to dosing (IOPDEO - IOPCEO): t = 0, pre-dose; for Effectiveness in lowering IOP, comparison (in words): the two rabbit models of Examples 10 and 11. The procedure: The treated eye was selected randomly, whereas, the fellow eye received placebo; the observer was masked.
In particular, a 1% w/v suspension of 6-chloro-2-benzothiazolesulfonamide analog was prepared in a standard vehicle consisting of aqueous pH 7.8 phosphate buffer, 0.05% w/v tween 80, and sufficient NaC1 to make the preparation isotonic. One drop, followed by two drops each at one minute intervals, was applied to one eye of normal adult white rabbits. Fifteen rabbits were used in the experiment. The treated eye was selected randomly, whereas, the fellow eye received placebo. The observer was masked. The intraocular pressure (IOP) was measured with an Alcon […] pneumotonometer. A drop of local anesthetic was applied just prior to making the measurement. The IOP was measured in both rabbit eyes at 0, 30, 60, 90 and 120 minutes following instillation of the new antiglaucoma agent.

Assay [3] shares this test system. The assay is described as above. Format: in vivo, adult white rabbits. The conditions noted are these: for Lowering of IOP (in words): 6-chloro: 30, 60 and 120 minutes, ethoxzolamide: any time point after dosing; for Average IOP change: 1% w/v suspension topical; for Average difference in IOP between both eyes just prior to dosing: t = 0, pre-dose; for Statistical significance of IOP change: N.S. = non-significant.

The mark [4] stands for this setting: 15 min after topical administration, 1% suspension, 50 ul q 2 min × 6, right eye.
Setting [5] is: 30 min after topical administration, 1% suspension, 50 ul q 2 min × 6, right eye.
[6] abbreviates: 60 min after topical administration, 1% suspension, 50 ul q 2 min × 6, right eye.
Where [7] appears, read: 90 min after topical administration, 1% suspension, 50 ul q 2 min × 6, right eye.
The mark [8] stands for this setting: 120 min after topical administration, 1% suspension, 50 ul q 2 min × 6, right eye.
The mark [9] stands for this setting: 180 min after topical administration, 1% suspension, 50 ul q 2 min × 6, right eye.
Where [10] appears, read: time 0 min, baseline, 1% suspension topical to right eye.

Values joined by “and” are separate entries in the source; they are usually repeats but may differ in a detail not shown here. Identical values can stand only once. “Also recorded” adds a separate entry of the source.

In the case of `NS(=O)(=O)c1nc2ccc(Cl)cc2s1` [6-Chloro benzothiazole-2-sulfonamide, 6-Chloro-2-benzothiazolesulfonamide], in assay [1], the “drop in IOP (right eye) compared to no drug control” value (shortened to “drop … compared to no drug control”) is given as “significant drop”. Also, the “IOP, right eye (R)” value came to 19.72 mmHg in assay [1] (setting [4]); 20.00 mmHg in assay [1] (setting [5]); 21.39 mmHg in assay [1] (setting [6]); 19.11 mmHg in assay [1] (setting [7]); 18.78 mmHg in assay [1] (setting [8]); 17.8 mmHg in assay [1] (setting [9]). In addition, the “IOP, right eye (R)” value in assay [1] (setting [10]) came out at 14.33 mmHg. For the same compound, in assay [1] (water loading model, topical), the “Effectiveness (in words)” value was “proved effective”. For the same compound, the “Paired t value of IOP change” value in assay [2] (60 min) is -2.106; in assay [2] (120 min), -2.11; in assay [3] (30 min) it was -1.834; in assay [3] (90 min) it was -1.63. Further, the “IOP change, (IOPDET - IOPCET) - (IOPDEO - IOPCEO)” value is -3 mm Hg and -5 mm Hg and +1 mm Hg and 0 mm Hg and -4 mm Hg and -1 mm Hg and -2 mm Hg and +2 mm Hg in assay [2] (30 min); -2 mm Hg and -4 mm Hg and +1 mm Hg and -3 mm Hg and +2 mm Hg and -1 mm Hg and +3 mm Hg in assay [2] (60 min); -1 mm Hg and -2 mm Hg and +1 mm Hg and -3 mm Hg and +2 mm Hg and 0 mm Hg and +3 mm Hg in assay [2] (90 min); -2 mm Hg and -4 mm Hg and +3 mm Hg and -1 mm Hg and -5 mm Hg and 0 mm Hg and -6 mm Hg and +1 mm Hg in assay [2] (120 min). In assay [2], the “Difference in IOP between both eyes just prior to dosing (IOPDEO - IOPCEO)” value was “+1 mm Hg and +2 mm Hg and 0 mm Hg and +3 mm Hg and -2 mm Hg and -1 mm Hg and -3 mm Hg”. Further, the “Effectiveness in lowering IOP, comparison (in words)” value in assay [2] is reported as “pharmacologically active (lowered IOP)”. The “Lowering of IOP (in words)” value in assay [3] is on record as “small but significant reduction of intraocular pressure; also recorded: statistically significant”. The “Probability (1.t.) of IOP change” value is reported as 0.05 in assay [3] (30 min), 0.025 in assay [3] (60 min), 0.1 in assay [3] (90 min) and 0.025 in assay [3] (120 min). Further, the “Average IOP change” value in assay [3] (30 min) is given as -0.93 mm Hg; in assay [3] (60 min), -1.27 mm Hg; in assay [3] (90 min), -0.87 mm Hg; in assay [3] (120 min), -1.47 mm Hg. For the same compound, the “Average difference in IOP between both eyes just prior to dosing” value in assay [3] is on record as “+0.27 mm Hg”.
With `CCOc1ccc2nc(S(=O)(=O)NC)sc2c1` [6-Ethoxy-N-methyl-2-benzothiazolesulfonamide], in assay [1], the “drop … compared to no drug control” value is given as “significant drop”. Besides, the “IOP, right eye (R)” value in assay [1] (setting [4]) came out at 19.10 mmHg; in assay [1] (setting [5]), 19.90 mmHg; in assay [1] (setting [6]) it was 20.33 mmHg; in assay [1] (setting [7]) it was 18.57 mmHg; in assay [1] (setting [8]), 17.24 mmHg; in assay [1] (setting [9]) it was 17.00 mmHg. The “IOP, right eye (R)” value in assay [1] (setting [10]) stood at 14.10 mmHg.
Consider `CCOc1ccc2nc(S(N)(=O)=O)sc2c1` [Ethoxzolamide, reference compound], for which, in assay [1], the “drop … compared to no drug control” value is reported as “no effect”. Moreover, the “IOP, right eye (R)” value in assay [1] (setting [4]) is 21.07 mmHg; in assay [1] (setting [5]), 21.60 mmHg; in assay [1] (setting [6]) it was 21.33 mmHg; in assay [1] (setting [7]) it was 20.33 mmHg; in assay [1] (setting [8]) it was 18.80 mmHg; in assay [1] (setting [9]), 16.4 mmHg. Moreover, the “IOP, right eye (R)” value in assay [1] (setting [10]) was determined as 14.94 mmHg. Further, the “Paired t value of IOP change” value came out at 0.40 in assay [2] (60 min), 0.50 in assay [2] (120 min), 1.27 in assay [3] (30 min) and 0.73 in assay [3] (90 min). The “IOP change, (IOPDET - IOPCET) - (IOPDEO - IOPCEO)” value in assay [2] (30 min) is “+1 mm Hg and +2 mm Hg and -2 mm Hg and -3 mm Hg and 0 mm Hg”; in assay [2] (60 min), “+3 mm Hg and -2 mm Hg and +2 mm Hg and +1 mm Hg and 0 mm Hg”; in assay [2] (90 min), “+1 mm Hg and 0 mm Hg and +2 mm Hg and -2 mm Hg and -3 mm Hg”; in assay [2] (120 min), 0 mm Hg and -1 mm Hg and +2 mm Hg. Moreover, the “Difference in IOP between both eyes just prior to dosing (IOPDEO - IOPCEO)” value in assay [2] is “+4 mm Hg and +1 mm Hg and -1 mm Hg and 0 mm Hg”. Moreover, the “Effectiveness in lowering IOP, comparison (in words)” value in assay [2] is on record as “no effectiveness”. Moreover, the “Lowering of IOP (in words)” value in assay [3] is listed as “No lowering of IOP could be detected”. In addition, the “Statistical significance of IOP change” value in assay [3] (30 min), in assay [3] (60 min), in assay [3] (90 min) and in assay [3] (120 min) was “N.S” each time. Also, the “Average IOP change” value in assay [3] (30 min) is “-.17 mm Hg”; in assay [3] (60 min), “+.33 mm Hg”; in assay [3] (90 min) it was -0 mm Hg; in assay [3] (120 min), “+.17 mm Hg”. Moreover, the “Average difference in IOP between both eyes just prior to dosing” value in assay [3] is given as “+.67 mm Hg”.
